Patent publication US20100048604A1, “Ligands for Aldoketoreductases” (priority 2004, published 2010)

Assays:
Format in all cases: biochemical
Details in all cases: 12 hour incubation, 30-50 μM substrate, pH 7, 250 μM NAD(P)H
[1] = system: panel of oxidoreductases; assay: Enzymatic screening of probes 1-7 against a panel of oxidoreductases (enzymes other than 3α-HSDs)
Method: (§1) FIG. 4. Screening of probes 1-7 against a panel of oxidoreductases Percentage fluorescence increase after 12 hour incubation of 30-50 μM substrate, 100 mM phosphate buffer (pH 7), 250 μM NAD(P)H, and 100 nM enzyme. Substrates 1, 2, 3, and 4 monitored at λexc=340 nm, λem=440 nm. Substrates 5, 6, and 7 monitored at λexc=440 nm, λem=510 nm. 3HSD, 3α-hydroxysteroid dehydrogenase (PT, Pseudomonas testosteroni), HLAD, horse liver alcohol dehydrogenase, TBAD, Thermoanaerobium brockii alcohol dehydrogenase, BS 12HSD, Bacillus sp. 12α-hydroxysteroid dehydrogenase, ABAD, amyloid-β binding alcohol dehydrogenase (human), GDH, glycerol dehydrogenase, YADH, yeast alcohol dehydrogenase, LDH, lactate dehydrogenase.
Probes 1-7 (see FIG. 3) were subsequently tested against a collection of dehydrogenases in the presence of NAD(P)H; the extent of reduction was assessed by the measurement of fluorescence intensity at the emission maximum of each probe (FIG. 4). […]
Initial Screening with Fluorogenic Substrates: Screening of the first fluorogenic substrates for enzymatic activity has been described above. […] Formation of the alcohol reduction product was determined by reading the fluorescence arising from excitation at the corresponding alcohol at either 340 nm (27-30) or 440 nm (31-33).

[2] = biological target: T1, horse liver alcohol dehydrogenase (HLAD) (Equus caballus, UniProt P00327); assay: Enzymatic screening of probes 1-7 against a panel of oxidoreductases
T1 construct: purchased Sigma (St. Louis, Mo.) Lot Number 51K7520 (catalogue number not given)
T1 sequence (P00327 2-375 limits assumed): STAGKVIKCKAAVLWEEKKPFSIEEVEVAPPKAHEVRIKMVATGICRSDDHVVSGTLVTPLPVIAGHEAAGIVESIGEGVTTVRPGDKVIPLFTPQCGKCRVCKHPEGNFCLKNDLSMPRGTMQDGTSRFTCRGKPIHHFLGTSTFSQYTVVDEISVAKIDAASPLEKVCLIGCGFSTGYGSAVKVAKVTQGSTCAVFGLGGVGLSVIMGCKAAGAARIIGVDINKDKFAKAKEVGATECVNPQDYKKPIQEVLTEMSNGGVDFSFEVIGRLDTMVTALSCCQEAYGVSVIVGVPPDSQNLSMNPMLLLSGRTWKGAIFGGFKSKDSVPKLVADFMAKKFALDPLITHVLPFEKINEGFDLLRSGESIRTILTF
Method: as §1
(§2) Probes 1-7 (see FIG. 3) were subsequently tested against a collection of dehydrogenases in the presence of NAD(P)H; the extent of reduction was assessed by the measurement of fluorescence intensity at the emission maximum of each probe (FIG. 4). This assay included enzymes from two major oxidoreductase superfamilies, the short chain alcohol dehydrogenases (SDR) and the aldo-keto reductases (AKR), ranging from bacterial to mammalian and human enzymes.
(§3) Horse Liver alcohol dehydrogenase (Lot Number 51K7520), Thermoanaerobium brockii NADP^+ dependent alcohol dehydrogenase (Lot Number 033K4093), Pseudomonas testosteroni 3α-hydroxysteroid dehydrogenase (Lot Number 053K8624), and Bacillus sphaericus 12α-hydroxysteroid dehydrogenase (Lot Number 70K16621) were purchased from Sigma (St. Louis, Mo.). Yeast alcohol dehydrogenase (Lot Number 93122920), glycerol dehydrogenase (Lot Number 92110122), (D)-lactate dehydrogenase (Lot Number 92419236), (L)-lactate dehydrogenase (Lot Number 92801821), NAD^+, NADP^+, NADH, and NADPH were purchased from Roche. Enzyme activity was confirmed by compliance to supplier's quality control assays prior to usage. Rat and human 3α-hydroxysteroid dehydrogenases were provided by Professor Trevor Penning (University of Pennsylvania School of Medicine) and human amyloid-β peptide binding alcohol dehydrogenase was supplied by Professor Shi Du Yan (Columbia University School for Physicians and Surgeons).
(§4) Enzymatic assays were performed in triplicate on selected fluorogenic substrates according to the following protocol. To each well of a FALCON 96-well black flat bottom plate was added (1) 40 μL of 500 mM potassium phosphate buffer pH 7.0, (2) 113 μL of double deionized water, (3) 25 μL of 2 mM NADH (except for Pseudomonas testosteroni 3α-hydroxysteroid dehydrogenase, rat 3α-hydroxysteroid dehydrogenase, and Thermoanaerobium brockii NADP^+ dependent alcohol dehydrogenase, in which cases 2 mM of NADPH was used), (4) 2 μL of a 3-5 mM solution of substrate in DMSO, and (5) 20 μL of a 40-50 μg/mL solution of enzyme. Reaction volumes were mixed thoroughly after addition of cofactor, substrate, and enzyme and allowed to react 12 hours at 25° C. Scanning of the 96-well plate was performed by the MicroMax 384 connected to a Jobin Yvon Fluorolog through F-3000 fiber optic cables.
(§5) Initial Screening with Fluorogenic Substrates: Screening of the first fluorogenic substrates for enzymatic activity has been described above. In short, 200 μL enzymatic assay volumes containing 100 mM potassium phosphate buffer (pH 7), 250 μM NAD(P)H cofactor, and 30-50 μM of ketones (1-7) were incubated for 12 hours on a black FALCON 96-well plate. Formation of the alcohol reduction product was determined by reading the fluorescence arising from excitation at the corresponding alcohol at either 340 nm (27-30) or 440 nm (31-33).

[3] = biological target: T2, Pseudomonas testosteroni 3α-hydroxysteroid dehydrogenase (Comamonas testosteroni, UniProt P80702); assay: as above
T2 construct: purchased Sigma (St. Louis, Mo.) Lot Number 053K8624 (catalogue number not given)
T2 sequence (P80702 whole entry): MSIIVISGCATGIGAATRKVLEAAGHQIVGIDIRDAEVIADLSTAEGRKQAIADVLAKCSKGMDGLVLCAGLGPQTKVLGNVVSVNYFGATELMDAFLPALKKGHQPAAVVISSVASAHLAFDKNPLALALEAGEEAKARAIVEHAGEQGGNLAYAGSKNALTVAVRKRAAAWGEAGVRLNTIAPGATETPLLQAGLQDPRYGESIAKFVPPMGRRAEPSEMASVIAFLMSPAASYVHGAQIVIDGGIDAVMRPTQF
Method: as §1, §2, §3, §4, §5

[4] = biological target: T3, Thermoanaerobium brockii alcohol dehydrogenase (TBAD) (Thermoanaerobacter brockii, UniProt P14941); assay: as above
T3 construct: purchased Sigma (St. Louis, Mo.) Lot Number 033K4093 (catalogue number not given)
T3 sequence (P14941 1-352): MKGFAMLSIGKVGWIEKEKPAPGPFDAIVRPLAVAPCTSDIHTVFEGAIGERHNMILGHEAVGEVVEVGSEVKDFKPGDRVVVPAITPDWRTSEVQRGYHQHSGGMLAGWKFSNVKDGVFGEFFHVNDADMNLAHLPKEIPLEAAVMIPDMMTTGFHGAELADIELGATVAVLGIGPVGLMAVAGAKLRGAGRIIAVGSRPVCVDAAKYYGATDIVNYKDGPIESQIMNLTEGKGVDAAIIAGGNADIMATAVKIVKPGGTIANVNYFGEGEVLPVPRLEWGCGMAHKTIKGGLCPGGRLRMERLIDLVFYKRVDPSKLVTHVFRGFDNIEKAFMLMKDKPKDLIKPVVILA
Method: as §1, §2, §3, §4, §5

[5] = biological target: T4, rat 3α-hydroxysteroid dehydrogenase (Rattus norvegicus, UniProt P23457); assay: as above
T4 construct: gift of Professor Trevor Penning (University of Pennsylvania School of Medicine)
T4 sequence (P23457 1-322): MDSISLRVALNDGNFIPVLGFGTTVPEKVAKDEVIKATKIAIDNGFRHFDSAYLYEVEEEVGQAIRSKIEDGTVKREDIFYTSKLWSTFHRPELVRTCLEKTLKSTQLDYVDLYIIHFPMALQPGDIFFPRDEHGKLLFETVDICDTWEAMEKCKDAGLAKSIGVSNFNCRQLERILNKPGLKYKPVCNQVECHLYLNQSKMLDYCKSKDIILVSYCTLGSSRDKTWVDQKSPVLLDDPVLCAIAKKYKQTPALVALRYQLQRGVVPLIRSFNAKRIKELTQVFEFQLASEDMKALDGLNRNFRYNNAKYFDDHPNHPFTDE
Method: as §1, §2, §3, §4, §5

Structure (SMILES): CC(=O)c1cc(=O)oc2c3c4c(cc12)CCCN4CCC3 [compound 5, 8-Acetyl-2,3,5,6-tetrahydro-1H,4H-11-oxa-3a-aza-benzo[de]anthracen-10-one]
- reduction of probe by the other enzymes of the panel [1]: No other enzymes examined in this assay catalyzed the reduction
- reduction of probe (fluorescence increase) [2]: not acceptant
- reduction of probe (fluorescence increase) [3]: converted rapidly and selectively
- reduction of probe (fluorescence increase) [4]: not acceptant
- reduction of probe (fluorescence increase) [5]: converted rapidly and selectively
